Reference: patent US20210261621A1, “Preparation of Dilipid Polymixins and Use Thereof as Antimicrobial Adjuvants” (priority 2018, published 2021)
Converted amounts (≈) assume the structure as drawn. Positions of bridges follow the written chain, without caps; N, C: chain ends. Non-standard residues stand in square brackets, D forms with d. Residues, ends and D or L forms follow the SMILES beside them. *: point of attachment. Lauroyl = CCCCCCCCCCCC(=O)*; Dab = NCC[C@H](N)C(=O)O

Columns and labels:
K. pneumoniae 113250 = type: cell-based, Klebsiella pneumoniae; settings: 113250
Method: (§1) We then addressed the possibility for the dilipid polymyxins to display enhanced antibacterial activity against colistin-resistant Gram-negative pathogens. […] The extended hydrophobic region of the dilipid polymyxin may provide additional hydrophobic interactions to the outer membrane of colistin-resistant organisms. Eight MDR colistin-resistant Gram-negative bacterial isolates were tested, including two E. coli isolates harboring the mcr-1 plasmid-encoded polymyxin resistance gene. We found no difference between the antibacterial activity of dilipid polymyxins and colistin against colistin-resistant Gram-negative bacteria (Table 3).
(§2) Bacterial strains were either obtained from the American Type Culture Collection (ATCC), Canadian National Intensive Care Unit (CAN-ICU) surveillance study or the Canadian Ward Surveillance (CANWARD) study. Strains from both CAN-ICU and CANWARD are isolates recovered from patients diagnosed with a presumed infectious disease that were admitted in a participating medical center across Canada. Efflux-deficient strain PAO200 (lacking MexAB-OprM efflux system) and PA0750 (lacking MexAB-OprM, MexCD-OprJ, MexEF-OprN, MexJK and MexXY efflux systems, and the outer membrane protein OpmH) were kindly gifted by Dr. Ayush Kumar (University of Manitoba).
(§3) The in vitro antibacterial activity of the compounds studied were assessed by broth microdilution susceptibility testing following CLSI guidelines. Bacterial cultures were grown overnight prior to the assay. The overnight grown cultures were diluted in saline to 0.5 McFarland turbidity, followed by 1:50 dilution in Mueller-Hinton broth (MHB) for inoculation to a final concentration of approximately 5×10^5 colony forming units/mL. Testing was performed on 96-well plates where the tested compounds were 2-fold serially diluted in MHB and incubated with equal volumes of bacterial inoculum at 37° C. for 18 h. […] Wells containing MHB with or without bacterial cells were used as positive or negative control, respectively.

K. pneumoniae 113254 = type: cell-based, Klebsiella pneumoniae; settings: 113254
Method: as §1, §2, §3

P. aeruginosa PAO1 = type: cell-based, Pseudomonas aeruginosa; settings: PAO1
How it was run: (§4)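 Broth microdilution per CLSI: overnight cultures adjusted to 0.5 McFarland in saline, diluted 1:50 in Mueller-Hinton broth to ~5×10^5 CFU/mL final, and incubated with 2-fold serial compound dilutions at 37° C. for 18 h. […]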

[1] = test system: P. aeruginosa PA264-104354; type: cell-based, Pseudomonas aeruginosa; settings: PA264-104354
How it was run: as §4

[2] = test system: P. aeruginosa PA259-96918; type: cell-based, Pseudomonas aeruginosa; settings: PA259-96918
How it was run: as §4

[3] = test system: P. aeruginosa PA262-101856; type: cell-based, Pseudomonas aeruginosa; settings: PA262-101856
How it was run: as §4

P. aeruginosa ATCC 27853 = type: cell-based, Pseudomonas aeruginosa; settings: P. aeruginosa ATCC 27853
How it was run: as §4

[4] = test system: P. aeruginosa PA260-97103; type: cell-based, Pseudomonas aeruginosa; settings: PA260-97103
How it was run: as §4

[5] = test system: P. aeruginosa CAN-ICU 62308; type: cell-based, Pseudomonas aeruginosa; settings: CAN-ICU 62308
How it was run: as §4

P. aeruginosa PA095 = type: cell-based, Pseudomonas aeruginosa; settings: PA095
How it was run: as §4

P. aeruginosa PA100036 = type: cell-based, Pseudomonas aeruginosa; settings: PA100036
How it was run: as §4

P. aeruginosa PA101885 = type: cell-based, Pseudomonas aeruginosa; settings: PA101885
How it was run: as §4

MSSE CANWARD-2008 81388 = type: cell-based, Staphylococcus epidermidis; settings: MSSE CANWARD-2008 81388 (methicillin-susceptible Staphylococcus epidermidis)
Excerpt: as §2, §3

S. aureus ATCC 29213 = type: cell-based, Staphylococcus aureus; settings: S. aureus ATCC 29213
Excerpt: as §2, §3

MRSA ATCC 33592 = type: cell-based, Staphylococcus aureus; settings: MRSA ATCC 33592 (methicillin-resistant Staphylococcus aureus)
Excerpt: as §2, §3

P. aeruginosa 101243 = type: cell-based, Pseudomonas aeruginosa; settings: 101243
Method: as §1, §2, §3

P. aeruginosa 91433 = type: cell-based, Pseudomonas aeruginosa; settings: 91433
Method: as §1, §2, §3

P. aeruginosa 114228 = type: cell-based, Pseudomonas aeruginosa; settings: 114228
Method: as §1, §2, §3

S. pneumoniae ATCC 49619 = type: cell-based; settings: ATCC 49619
Excerpt: as §2, §3

E. faecalis ATCC 29212 = type: cell-based; settings: ATCC 29212
Excerpt: as §2, §3

E. faecium ATCC 27270 = type: cell-based; settings: ATCC 27270
Excerpt: as §2, §3

A. baumannii LAC-4 = type: cell-based, Acinetobacter baumannii; settings: A. baumannii LAC-4
Excerpt: as §2, §3

A. baumannii AB027 = type: cell-based, Acinetobacter baumannii; settings: AB027
Excerpt: as §2, §3

A. baumannii 92247 = type: cell-based, Acinetobacter baumannii; settings: 92247
Method: as §1, §2, §3

E. coli 94474 = type: cell-based, Escherichia coli; settings: 94474
Method: as §1, §2, §3

E. coli 94393 = type: cell-based, Escherichia coli; settings: 94393
Method: as §1, §2, §3

E. coli 107115 = type: cell-based, Escherichia coli; settings: 107115
Excerpt: as §2, §3

E. coli CAN-ICU 61714 = type: cell-based, Escherichia coli; settings: CAN-ICU 61714
Excerpt: as §2, §3

E. coli CAN-ICU 63074 = type: cell-based, Escherichia coli; settings: CAN-ICU 63074
Excerpt: as §2, §3

E. coli ATCC 25922 = type: cell-based, Escherichia coli; settings: ATCC 25922
Excerpt: as §2, §3

CCCCCCCCCCCC(=O)NCC[C@H](NC(=O)CCCCCCCCCCC)C(=O)N[C@H](C(=O)N[C@@H](CCN)C(=O)N[C@H]1CCNC(=O)[C@H]([C@@H](C)O)NC(=O)[C@H](CCN)NC(=O)[C@H](CCN)NC(=O)[C@H](CC(C)C)NC(=O)[C@@H](Cc2ccccc2)NC(=O)[C@H](CCN)NC1=O)[C@@H](C)O [Compound 3, Didodecanoic Acid (Di-C12) Polymyxin] (Lauroyl-[Dab](Lauroyl)T[Dab][Dab][Dab][dF]L[Dab][Dab]T; lactam 4-C)
MIC (K. pneumoniae 113250): >64 µg/mL | MIC (K. pneumoniae 113254): >64 µg/mL | MIC (P. aeruginosa PAO1): 32 µg/mL (≈ 22.4 µM) | MIC [1]: 64 µg/mL (≈ 44.8 µM) | MIC [2]: 16 µg/mL (≈ 11.2 µM) | MIC [3]: 32 µg/mL (≈ 22.4 µM) | MIC (P. aeruginosa ATCC 27853): >128 µg/mL | MIC [4]: 32 µg/mL (≈ 22.4 µM) | MIC [5]: 64 µg/mL (≈ 44.8 µM) | MIC (P. aeruginosa PA095): 8 µg/mL (≈ 5.6 µM) | MIC (P. aeruginosa PA100036): 32 µg/mL (≈ 22.4 µM) | MIC (P. aeruginosa PA101885): 32 µg/mL (≈ 22.4 µM) | MIC (MSSE CANWARD-2008 81388): 64 µg/mL (≈ 44.8 µM) | MIC (S. aureus ATCC 29213): >128 µg/mL | MIC (MRSA ATCC 33592): >128 µg/mL | MIC (P. aeruginosa 101243): 16 µg/mL (≈ 11.2 µM) | MIC (P. aeruginosa 91433): 8 µg/mL (≈ 5.6 µM) | MIC (P. aeruginosa 114228): >128 µg/mL | MIC (S. pneumoniae ATCC 49619): 64 µg/mL (≈ 44.8 µM) | MIC (E. faecalis ATCC 29212): 64 µg/mL (≈ 44.8 µM) | MIC (E. faecium ATCC 27270): 8 µg/mL (≈ 5.6 µM) | MIC (A. baumannii LAC-4): >128 µg/mL | MIC (A. baumannii AB027): 128 µg/mL (≈ 89.6 µM) | MIC (A. baumannii 92247): 32 µg/mL (≈ 22.4 µM) | MIC (E. coli 94474): >64 µg/mL | MIC (E. coli 94393): 32 µg/mL (≈ 22.4 µM) | MIC (E. coli 107115): 8 µg/mL (≈ 5.6 µM) | MIC (E. coli CAN-ICU 61714): 128 µg/mL (≈ 89.6 µM) | MIC (E. coli CAN-ICU 63074): 64 µg/mL (≈ 44.8 µM) | MIC (E. coli ATCC 25922): 16 µg/mL (≈ 11.2 µM)
